Reference: the NIST ThermoML archive (doi:10.1021/je400178k)
Numbers after ± are expanded uncertainties.

Test: molar heat capacity at constant pressure; xn = mol fraction of the nth substance listed
Settings: 101 kPa, Liquid, Small sample (50 mg) DSC

OCCN1CCOCC1 [4-morpholineethanol] + O
molar heat capacity at constant pressure [J/K/mol]
Settings | x1 = 0.0998 | x1 = 0.1985 | x1 = 0.2979 | x1 = 0.3969 | x1 = 0.4952 | x1 = 0.6017 | x1 = 0.7031 | x1 = 0.7657 | x1 = 0.8977 | x1 = 1
298.15 K | 101 ± 2.5 | 120.8 ± 2.6 | 140.3 ± 2.8 | 159.5 ± 3 | 177.4 ± 3.2 | 195.6 ± 3.4 | 212.8 ± 3.6 | 223.5 ± 3.7 | 246.5 ± 4 | 263.9 ± 4.2
303.15 K | 102.4 ± 2.5 | 123.6 ± 2.7 | 142.6 ± 2.8 | 162.4 ± 3 | 180 ± 3.2 | 198 ± 3.4 | 214.7 ± 3.6 | 226 ± 3.8 | 248.4 ± 4 | 265.3 ± 4.3
308.15 K | 103.8 ± 2.5 | 125.7 ± 2.7 | 144.6 ± 2.9 | 165 ± 3.1 | 182.6 ± 3.3 | 200.3 ± 3.5 | 217.1 ± 3.7 | 228.3 ± 3.8 | 250.8 ± 4.1 | 267.1 ± 4.3
313.15 K | 105.4 ± 2.5 | 127.9 ± 2.7 | 146.7 ± 2.9 | 167.8 ± 3.1 | 185.5 ± 3.3 | 203 ± 3.5 | 219.7 ± 3.7 | 230.8 ± 3.8 | 253.1 ± 4.1 | 269.2 ± 4.3
318.15 K | 107.2 ± 2.5 | 130.4 ± 2.7 | 148.9 ± 2.9 | 171 ± 3.1 | 188.6 ± 3.3 | 205.9 ± 3.5 | 222.5 ± 3.7 | 233.3 ± 3.9 | 255 ± 4.1 | 270.8 ± 4.3
323.15 K | 109 ± 2.5 | 133 ± 2.7 | 152.3 ± 2.9 | 174.4 ± 3.2 | 191.8 ± 3.4 | 208.7 ± 3.6 | 225.5 ± 3.8 | 235.8 ± 3.9 | 257 ± 4.1 | 272.6 ± 4.3
328.15 K | 111.4 ± 2.5 | 136 ± 2.8 | 156.3 ± 3 | 178.4 ± 3.2 | 195.5 ± 3.4 | 211.8 ± 3.6 | 228.7 ± 3.8 | 238.6 ± 3.9 | 259.1 ± 4.2 | 274.3 ± 4.4
333.15 K | 114.2 ± 2.6 | 139.3 ± 2.8 | 160.3 ± 3 | 183 ± 3.3 | 199.7 ± 3.5 | 215.6 ± 3.6 | 232.5 ± 3.8 | 242.5 ± 4 | 261.7 ± 4.2 | 276.2 ± 4.4
338.15 K | 117.4 ± 2.6 | 143.2 ± 2.8 | 165 ± 3.1 | 188.6 ± 3.3 | 204.6 ± 3.5 | 220.1 ± 3.7 | 237 ± 3.9 | 246.3 ± 4 | 264.7 ± 4.2 | 278.7 ± 4.4
343.15 K | 121.1 ± 2.6 | 147.7 ± 2.9 | 170.6 ± 3.1 | 194.6 ± 3.4 | 209.9 ± 3.6 | 225.4 ± 3.8 | 241.6 ± 4 | 250.3 ± 4.1 | 267.9 ± 4.3 | 281 ± 4.4
348.15 K | 125.9 ± 2.7 | 152.9 ± 2.9 | 178.7 ± 3.2 | 201.6 ± 3.5 | 215.9 ± 3.7 | 231 ± 3.8 | 246.6 ± 4 | 254.8 ± 4.1 | 271.2 ± 4.3 | 283.2 ± 4.5
353.15 K | 131.9 ± 2.7 | 159.5 ± 3 | 187 ± 3.3 | 209.9 ± 3.6 | 222.5 ± 3.7 | 236.4 ± 3.9 | 252.2 ± 4.1 | 259.4 ± 4.2 | 274.8 ± 4.4 | 284.9 ± 4.5
